Where “and” joins values, the source holds several entries; their conditions need not be identical. Equal entries are not always repeated. Values belong to the molecule of their own block, whether it stands above or below them.
Test system: 994946-033-R-J1-PDC complex spheroid viability
Assay: Anticancer human tumor 994946-033-R-J1-PDC patient-derived melanoma cell line growth inhibition [POLQ]
Conditions: for viability, T/C: stronger effect = lower value
Method: Multicellular complex tumor spheroid response to Polymerase (POL) inhibitors (novobiocin, ART-558, RP6685) in combination with a variety of drugs and investigational agents in selected tumor cell lines
The POL inhibitors (novobiocin, ART-558, and RP6685) were evaluated both individually and in combination with standard of care and investigational anticancer small molecules within a complex spheroid model of solid tumors. . Complex spheroids include a stromal component modeled by human endothelial cells (HUVEC) and fibroblasts modeled by human mesenchymal stem cells (MSCs). The concentration ranges selected for each drug and investigational agent were based upon clinically achievable concentrations if the clinical Cmax of the agent was known.
Compounds. The drugs and investigational agents: novobiocin (NSC847541), ART-558 (NSC835418), RP-6685 (NSC848927), peposertib (NSC802822), ceralasertib (NSC780249), elimusertib (NSC800525), camonsertib (NSC841442), AZD-1390 (NSC803789), olaparib (NSC753686), talazoparib (NSC767125), rucaparib (NSC756644), sotorasib (NSC818433), MRTX-1133 (NSC836407), SN-38 (NSC673596), topotecan (NSC609699), epotoside (NSC141540), doxorubicin (NSC123127), gemcitabine (NSC613327), 5-fluorouracil (NSC19893), paclitaxel (NSC125973), vemurafenib (NSC761431), MSA-2 (NSC828583), SN-011 (NSC837082), adavosertib (NSC754352), prexasertib (NSC758257), carboplatin (NSC241240) and oxaliplatin (NSC266046), were obtained from the National Cancer Institute (NCI) Developmental Therapeutics Program Chemical Repository (21). The FDA-approved anticancer drug set is available from the Developmental Therapeutics Program at https://dtp.cancer.gov/organization/dscb/obtaining/. […] The stock solutions were prepared in dimethyl sulfoxide (DMSO, Sigma-Aldrich, St. Louis, MO, cat. D2650), except for the platinum compounds which were prepared in saline (Quality Biological, Gaithersburg, MD, cat. 114-055-101), at 800-fold the tested concentration and stored at -70 degrees C prior to their use. All drugs and investigational agents were tested over a range starting from a high concentration at or near the clinical Cmax and decreasing in half-log increments. If the clinical Cmax for an agent had not been determined, the highest concentration tested was 10 microM, except for SN-38, which was tested at a high concentration of 1 microM.
Cell Culture. All cells were maintained in an incubator at 37 degrees C and 5% CO2 with 95% humidity. The PDC lines were cultured according to standard operating procedures established by the NCI PDMR (https://pdmr.cancer.gov). Table 3 of the manuscript, lists the cell lines along with the number of the three cell types plated to form the mct-spheroids and media for tumor cell growth. After thawing, all PDC lines, except 997537-175-T-J1-PDC and 415267-285-R-J2-PDC, were cultured in Matrigel-coated flasks prepared with a working solution of 1X Ham's F-12 nutrient mix, without supplementation (Thermo Fisher Scientific, cat. 11765054), 100 U/mL penicillin-streptomycin (Thermo Fisher Scientific, cat. 15140122), and 2.5% Matrigel (Corning Inc., Corning, NY, cat. 354248) for the first three passages. The two PDC lines 997537-175-T-J1-PDC and 415267-285-R-J2-PDC were cultured on uncoated flasks. The 857933-349-R-J2-PDC line was cultured in 6C/Colon 1B media containing advanced DMEM/F-12 (Thermo Fisher Scientific, cat. 12634028), 10 mM HEPES (Thermo Fisher Scientific, cat. 15630080), 1X GlutaMAX supplement (Thermo Fisher Scientific, cat. 35050061), 0.1 mg/mL primocin (InvivoGen, San Diego, CA, cat. ant-pm-2), 10% defined fetal bovine serum, heat inactivated (HyClone Laboratories Inc., Logan, UT, cat. SH30070.03HI), 50% L-WRN conditioned media (ATCC, cat. CRL-3276), 1.25 mM N-Acetyl-L-cysteine (Sigma-Aldrich, cat. A9165), 10 mM nicotinamide (Sigma-Aldrich, cat. N0636), 1X B-27 supplement (Thermo Fisher Scientific, cat. 17504044), 1X N-2 supplement (Thermo Fisher Scientific, cat. […]
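Note: spheroids exposed to drugs for 7 days.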
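Throughout, for viability, T/C: 100% = DMSO vehicle treated spheroids.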

SMILES: O=c1[nH]cc(F)c(=O)[nH]1 + Nc1ccc(C#CCN(C(=O)Cc2ncc(C(F)(F)F)cc2C(F)(F)F)c2ccc(F)cc2)nn1
IC50 (curve of first compound, second compound 0.0316 µM): > 10 µM | IC50 (curve of first compound, second compound 0.1 µM): > 10 µM | IC50 (curve of first compound, second compound 0.316 µM): > 10 µM | IC50 (curve of first compound, second compound 1 µM): > 10 µM | IC50 (curve of first compound, second compound 3.16 µM): 5.54 µM | IC50 (curve of first compound, second compound 10 µM): > 10 µM | viability, T/C (second compound 0.0316 µM, first compound 0.0316 µM): 104% | viability, T/C (second compound 0.0316 µM, first compound 0.1 µM): 114% | viability, T/C (second compound 0.0316 µM, first compound 0.316 µM): 92.5% | viability, T/C (second compound 0.0316 µM, first compound 1 µM): 67.9% | viability, T/C (second compound 0.0316 µM, first compound 3.16 µM): 62.8% | viability, T/C (second compound 0.0316 µM, first compound 10 µM): 54% | viability, T/C (second compound 0.1 µM, first compound 0.0316 µM): 101% | viability, T/C (second compound 0.1 µM, first compound 0.1 µM): 75.6% | viability, T/C (second compound 0.1 µM, first compound 0.316 µM): 93.7% | viability, T/C (second compound 0.1 µM, first compound 1 µM): 81% | viability, T/C (second compound 0.1 µM, first compound 3.16 µM): 60.1% | viability, T/C (second compound 0.1 µM, first compound 10 µM): 68.9% | viability, T/C (second compound 0.316 µM, first compound 0.0316 µM): 81.9% | viability, T/C (second compound 0.316 µM, first compound 0.1 µM): 81.1% | viability, T/C (second compound 0.316 µM, first compound 0.316 µM): 104% | viability, T/C (second compound 0.316 µM, first compound 1 µM): 70.8% | viability, T/C (second compound 0.316 µM, first compound 3.16 µM): 76.1% | viability, T/C (second compound 0.316 µM, first compound 10 µM): 63.1% | viability, T/C (second compound 1 µM, first compound 0.0316 µM): 100% | viability, T/C (second compound 1 µM, first compound 0.1 µM): 83.1% | viability, T/C (second compound 1 µM, first compound 0.316 µM): 116% | viability, T/C (second compound 1 µM, first compound 1 µM): 61.1% | viability, T/C (second compound 1 µM, first compound 3.16 µM): 66.8% | viability, T/C (second compound 1 µM, first compound 10 µM): 50.8% | viability, T/C (second compound 3.16 µM, first compound 0.0316 µM): 97.2% | viability, T/C (second compound 3.16 µM, first compound 0.1 µM): 112% | viability, T/C (second compound 3.16 µM, first compound 0.316 µM): 81.2% | viability, T/C (second compound 3.16 µM, first compound 1 µM): 85.3% | viability, T/C (second compound 3.16 µM, first compound 3.16 µM): 49.2% | viability, T/C (second compound 3.16 µM, first compound 10 µM): 47% | viability, T/C (second compound 10 µM, first compound 0.0316 µM): 111% | viability, T/C (second compound 10 µM, first compound 0.1 µM): 51.9% | viability, T/C (second compound 10 µM, first compound 0.316 µM): 86.9% | viability, T/C (second compound 10 µM, first compound 1 µM): 67.6% | viability, T/C (second compound 10 µM, first compound 3.16 µM): 75.3% | viability, T/C (second compound 10 µM, first compound 10 µM): 42.4%

SMILES: CC(C)n1c(=O)n(C)c2cnc3cc(F)c(-c4ccc(OCCCN5CCCCC5)nc4)cc3c21
viability, T/C (compound 0.0316 µM): 95.4% and 78.5% and 82.5% | viability, T/C (compound 0.1 µM): 86.1% and 90.5% and 82.5% | viability, T/C (compound 0.316 µM): 93.8% and 117% and 70.9% | viability, T/C (compound 1 µM): 86.5% and 77.2% and 84.3% | viability, T/C (compound 3.16 µM): 56.9% and 68.1% and 62.2% | viability, T/C (compound 10 µM): 21.2% and 41.8% and 25.7% | IC50 (curve of compound): 3.94 µM and 6.87 µM and 4.65 µM

SMILES: O=c1[nH]cc(F)c(=O)[nH]1
viability, T/C (compound 0.0316 µM): 115% and 112% and 96.8% | viability, T/C (compound 0.1 µM): 95.1% and 107% and 103% | viability, T/C (compound 0.316 µM): 71.1% and 97.4% and 103% | viability, T/C (compound 1 µM): 63.1% and 67.9% and 60.2% | viability, T/C (compound 3.16 µM): 50.7% and 73.6% and 64% | viability, T/C (compound 10 µM): 45.7% and 47.6% and 54.8% | IC50 (curve of compound): 4.22 µM and > 10 µM

IC50 (compound alone, run of 10/31/2023): > 10 µM | IC50 (compound alone, run of 11/06/2023): > 10 µM
SMILES: Cc1cccc(N(C)C(=O)C2C(O)CCN2c2nc(C)cc(C(F)(F)F)c2C#N)c1 (stereo unspecified)
viability, T/C (compound 0.1 µM): 93.6% [middle of 13 runs]

SMILES: CCc1cc2c(N3CCc4c(cc(Cn5ccnc5)cc4-c4cn(C)nc4C(F)(F)F)C3=O)ccnc2c(OC)n1
viability, T/C (compound 0.0316 µM): 89.4% and 91.8% and 73.3% | viability, T/C (compound 0.1 µM): 85.4% and 86.5% and 82.3% | viability, T/C (compound 0.316 µM): 85.9% and 66.4% and 74.3% | viability, T/C (compound 1 µM): 88.4% and 84% and 76.2% | viability, T/C (compound 3.16 µM): 80.5% and 83.7% and 102% | viability, T/C (compound 10 µM): 76% and 62.5% and 43% | IC50 (curve of compound): > 10 µM and 8.11 µM

Source: PubChem BioAssay AID1963827 (Molecular Pharmacology Branch, DTP, NCI, 2024)
